Measurements as given in patent US9839639B2, “Neprilysin inhibitors” (THERAVANCE BIOPHARMA R&D IP, LLC, priority 2014, dated 2017).

These compounds were tested against T1, human NEP (Homo sapiens, UniProt P08473) (assay: In vitro enzyme inhibition assay, inhibitor potency at human NEP). Conditions: recombinant human NEP, fluorogenic peptide substrate 10 μM, 37° C.; values given as ranges.
T1 construct: purchased R&D Systems, Minneapolis, Minn; 1182-ZN
Format: biochemical
Experimental: The inhibitory activities of compounds at human and rat neprilysin (EC 3.4.24.11; NEP) and human angiotensin converting enzyme (ACE) were determined using in vitro assays as described below.
Recombinant human NEP and recombinant human ACE were obtained commercially (R&D Systems, Minneapolis, Minn., catalog numbers 1182-ZN and 929-ZN, respectively). The fluorogenic peptide substrate Mca-D-Arg-Arg-Leu-Dap-(Dnp)-OH (Medeiros et al. (1997) Braz. J. Med. Biol. Res. 30:1157-62; Anaspec, San Jose, Calif.) and Abz-Phe-Arg-Lys(Dnp)-Pro-OH (Araujo et al. (2000) Biochemistry 39:8519-8525; Bachem, Torrance, Calif.) were used in the NEP and ACE assays respectively.
The assays were performed in 384-well white opaque plates at 37° C. using the fluorogenic peptide substrates at a concentration of 10 μM in Assay Buffer (NEP: 50 mM HEPES, pH 7.5, 100 mM NaCl, 0.01% polyethylene glycol sorbitan monolaurate (Tween-20), 10 μM ZnSO4; ACE: 50 mM HEPES, pH 7.5, 100 mM NaCl, 0.01% Tween-20, 1 μM ZnSO4).
Test compounds were assayed over the range of concentrations from 10 μM to 20 pM. Test compounds were added to the enzymes and incubated for 30 minute at 37° C. prior to initiating the reaction by the addition of substrate. Reactions were terminated after 20 minutes of incubation at 37° C. by the addition of glacial acetic acid to a final concentration of 3.6% (v/v).
Plates were read on a fluorometer with excitation and emission wavelengths set to 320 nm and 405 nm, respectively. Inhibition constants were obtained by nonlinear regression of the data using the equation (GraphPad Software, Inc., San Diego, Calif.): v=v0/[1+(I/K′)] where v is the reaction rate, v0 is the uninhibited reaction rate, I is the inhibitor concentration and K′ is the apparent inhibition constant.
Compounds of the invention were tested in this assay and found to have pKi values at human NEP as follows.

T1 sequence (P08473 52-750 limits assumed): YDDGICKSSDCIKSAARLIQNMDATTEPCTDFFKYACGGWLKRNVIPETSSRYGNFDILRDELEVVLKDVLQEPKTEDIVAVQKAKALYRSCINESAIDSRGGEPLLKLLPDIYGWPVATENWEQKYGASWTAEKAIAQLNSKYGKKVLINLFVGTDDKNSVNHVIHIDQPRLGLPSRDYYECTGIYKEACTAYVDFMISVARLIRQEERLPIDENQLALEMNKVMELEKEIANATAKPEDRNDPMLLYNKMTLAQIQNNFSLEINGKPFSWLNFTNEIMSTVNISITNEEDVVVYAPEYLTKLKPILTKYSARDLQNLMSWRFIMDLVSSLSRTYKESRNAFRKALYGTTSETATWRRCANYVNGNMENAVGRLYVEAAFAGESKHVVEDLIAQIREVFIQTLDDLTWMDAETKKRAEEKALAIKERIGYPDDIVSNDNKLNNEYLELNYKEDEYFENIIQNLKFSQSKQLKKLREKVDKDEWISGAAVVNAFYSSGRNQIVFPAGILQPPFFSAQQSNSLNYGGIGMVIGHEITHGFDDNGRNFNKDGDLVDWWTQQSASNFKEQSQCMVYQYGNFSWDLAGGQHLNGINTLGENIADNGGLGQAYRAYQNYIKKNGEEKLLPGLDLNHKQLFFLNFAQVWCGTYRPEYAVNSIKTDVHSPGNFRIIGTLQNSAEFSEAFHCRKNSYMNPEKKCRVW

SMILES | Ki | pKi
COC[C@](C)(C[C@@H](Cc1ccc(-c2cc(Cl)ccc2F)cc1)NC(=O)c1coc(C2CC2)n1)C(=O)O [Example 8-2, (2S,4R)-5-(5′-Chloro-2′-fluorobiphenyl-4-yl)-4-[(2-cyclopropyloxazole-4-carbonyl)amino]-2-methoxymethyl-2-methylpentanoic acid] | 1.26 to 3.16 nM | –
CCOn1cc(C(=O)N[C@H](Cc2ccc(-c3cc(Cl)ccc3F)cc2)C[C@@](C)(COC)C(=O)O)nn1 [Example 8-8, (2S,4R)-5-(5′-Chloro-2′-fluorobiphenyl-4-yl)-4-[(1-ethoxy-1H-[1,2,3]triazole-4-carbonyl)amino]-2-methoxymethyl-2-methylpentanoic acid] | ≤ 1 nM | –
CC(=O)NCCC(CO)(C[C@@H](Cc1ccc(-c2cc(Cl)ccc2F)cc1)NC(=O)c1cnn[nH]1)C(=O)O (stereo partly drawn) [Example 18, (R)-2-(2-Acetylaminoethyl)-5-(5′-chloro-2′-fluorobiphenyl-4-yl)-2-hydroxymethyl-4-[(3H-[1,2,3]triazole-4-carbonyl)amino]pentanoic Acid] | ≤ 1 nM | –
C[C@@](CN)(C[C@@H](Cc1ccc(-c2cc(Cl)ccc2F)cc1)NC(=O)c1ccn(C(F)F)n1)C(=O)O [Example 3, (2S,4R)-2-Aminomethyl-5-(5′-chloro-2′-fluorobiphenyl-4-yl)-4-[(1-difluoromethyl-1H-pyrazole-3-carbonyl)amino]-2-methylpentanoic Acid] | 1.26 to 3.16 nM | –
C[C@@](CN)(C[C@@H](Cc1ccc(-c2cc(Cl)ccc2F)cc1)NC(=O)c1cnn[nH]1)C(=O)O [Example 2, (2S,4R)-2-Aminomethyl-5-(5′-chloro-2′-fluorobiphenyl-4-yl)-2-methyl-4-[(3H-[1,2,3]triazole-4-carbonyl)amino]pentanoic Acid] | ≤ 1 nM | –
COC[C@](C)(C[C@@H](Cc1ccc(-c2cc(Cl)ccc2F)cc1)NC(=O)c1ncco1)C(=O)O [Example 8-6, (2S,4R)-5-(5′-Chloro-2′-fluorobiphenyl-4-yl)-2-methoxymethyl-2-methyl-4-[(oxazole-2-carbonyl)amino]pentanoic acid] | ≤ 1 nM | –
COC[C@](C)(C[C@@H](Cc1ccc(-c2cc(Cl)ccc2F)cc1)NC(=O)c1noc(=O)[nH]1)C(=O)O [Example 7, (2S,4R)-5-(5′-Chloro-2′-fluorobiphenyl-4-yl)-2-methoxymethyl-2-methyl-4-[(5-oxo-4,5-dihydro-[1,2,4]oxadiazole-3-carbonyl)amino]pentanoic Acid] | ≤ 1 nM | –
COC[C@](C)(C[C@@H](Cc1ccc(-c2cc(Cl)ccc2F)cc1)NC(=O)c1ccc(Cl)cn1)C(=O)O [Example 8-3, (2S,4R)-5-(5′-Chloro-2′-fluorobiphenyl-4-yl)-4-[(5-chloropyridine-2-carbonyl)amino]-2-methoxymethyl-2-methylpentanoic acid] | 1.26 to 3.16 nM | –
Cc1cnc(C(=O)N[C@H](Cc2ccc(-c3cc(Cl)ccc3F)cc2)C[C@@](C)(CN)C(=O)O)o1 [Example 4-2, (2S,4R)-2-Aminomethyl-5-(5′-chloro-2′-fluorobiphenyl-4-yl)-2-methyl-4-[(5-methyl-oxazole-2-carbonyl)amino]pentanoic acid] | 1.26 to 3.16 nM | –
NCCC(CO)(C[C@@H](Cc1ccc(-c2cc(Cl)ccc2F)cc1)NC(=O)c1cnn[nH]1)C(=O)O (stereo partly drawn) [Example 17, (R)-2-(2-Amino-ethyl)-5-(5′-chloro-2′-fluorobiphenyl-4-yl)-2-hydroxymethyl-4-[(3H-[1,2,3]triazole-4-carbonyl)amino]pentanoic Acid] | 1.26 to 3.16 nM | –
CC(N)(C[C@@H](Cc1ccc(-c2cc(Cl)ccc2F)cc1)NC(=O)c1cnn[nH]1)C(=O)O (single isomer, unassigned) [Example 1a] | 3.98 to 10 nM | –
COC[C@](C)(C[C@@H](Cc1ccc(-c2cc(Cl)ccc2F)cc1)NC(=O)c1ccc(C(F)(F)F)cn1)C(=O)O [Example 8-5, (2S,4R)-5-(5′-Chloro-2′-fluorobiphenyl-4-yl)-2-methoxymethyl-2-methyl-4-[(5-trifluoromethylpyridine-2-carbonyl)amino]pentanoic acid] | ≤ 1 nM | –
COC[C@](C)(C[C@@H](Cc1ccc(-c2cc(Cl)ccc2F)cc1)NC(=O)c1nc[nH]n1)C(=O)O [Example 8-7, (2S,4R)-5-(5′-Chloro-2′-fluorobiphenyl-4-yl)-2-methoxymethyl-2-methyl-4-[(1H-[1,2,4]triazole-3-carbonyl)amino]pentanoic acid] | 1.26 to 3.16 nM | –
CC(C[C@@H](Cc1ccc(-c2cc(Cl)ccc2F)cc1)NC(=O)c1c[nH]nn1)(C(=O)O)C(=O)O [Example 6, 2-{(R)-3-(5′-Chloro-2′-fluorobiphenyl-4-yl)-2-[(1H-[1,2,3]triazole-4-carbonyl)amino]propyl}-2-methylmalonic Acid] | ≤ 1 nM | –
COC[C@](C)(C[C@@H](Cc1ccc(-c2cc(Cl)ccc2F)cc1)NC(=O)c1cn(OC)nn1)C(=O)O [Example 8-9, (2S,4R)-5-(5′-Chloro-2′-fluorobiphenyl-4-yl)-2-methoxymethyl-4-[(1-methoxy-1H-[1,2,3]triazole-4-carbonyl)amino]-2-methylpentanoic acid] | 1.26 to 3.16 nM | –
C[C@](C[C@@H](Cc1ccc(-c2cc(Cl)ccc2F)cc1)NC(=O)c1c[nH]nn1)(C(N)=O)C(=O)O [Example 5, (2S,4R)-2-Carbamoyl-5-(5′-chloro-2′-fluorobiphenyl-4-yl)-2-methyl-4-[(1H-[1,2,3]triazole-4-carbonyl)amino]pentanoic Acid] | ≤ 1 nM | –
CCOC[C@](C)(C[C@@H](Cc1ccc(-c2cc(Cl)ccc2F)cc1)NC(=O)c1coc(C2CC2)n1)C(=O)O [Example 10, (2S,4R)-5-(5′-Chloro-2′-fluorobiphenyl-4-yl)-4-[(2-cyclopropyoxazole-4-carbonyl)amino]-2-ethoxymethyl-2-methylpentanoic Acid] | 1.26 to 3.16 nM | –

Results, then the compound that gave them:

Ki | pKi | SMILES
1.26 to 3.16 nM | – | CCOC[C@](C)(C[C@@H](Cc1ccc(-c2cc(Cl)ccc2F)cc1)NC(=O)c1ncco1)C(=O)O [Example 11-1, (2S,4R)-5-(5′-Chloro-2′-fluorobiphenyl-4-yl)-2-ethoxymethyl-2-methyl-4-[(oxazole-2-carbonyl)amino]pentanoic acid]
12.6 to 31.6 nM | – | O=C(N[C@H](Cc1ccc(-c2cc(Cl)ccc2F)cc1)CC(CO)(CCO)C(=O)O)c1cnn[nH]1 (single isomer, unassigned) [Example 16b]
1.26 to 3.16 nM | – | O=C(N[C@H](Cc1ccc(-c2cc(Cl)ccc2F)cc1)CC(CO)(CCO)C(=O)O)c1cnn[nH]1 (single isomer, unassigned) [Example 16a]
1.26 to 3.16 nM | – | CCOC[C@](C)(C[C@@H](Cc1ccc(-c2cc(Cl)ccc2F)cc1)NC(=O)c1ncccn1)C(=O)O [Example 11-3, (2S,4R)-5-(5′-Chloro-2′-fluorobiphenyl-4-yl)-2-ethoxymethyl-2-methyl-4-[(pyrimidine-2-carbonyl)amino]pentanoic acid]
– | ≧9.0 | CCCC(CO)(C[C@@H](Cc1ccc(-c2cc(Cl)ccc2F)cc1)NC(=O)c1cnn[nH]1)C(=O)O (single isomer, unassigned) [Example 15b]
≤ 1 nM | – | CC(C#N)(C[C@@H](Cc1ccc(-c2cc(Cl)ccc2F)cc1)NC(=O)c1cnn[nH]1)C(=O)O (single isomer, unassigned) [Example 12b]
39.8 to 100 nM | – | CC(C#N)(C[C@@H](Cc1ccc(-c2cc(Cl)ccc2F)cc1)NC(=O)c1cnn[nH]1)C(=O)O (single isomer, unassigned) [Example 12a]
126 to 316 nM | – | CCC(C#N)(C[C@@H](Cc1ccc(-c2cc(Cl)ccc2F)cc1)NC(=O)c1cnn[nH]1)C(=O)O (single isomer, unassigned) [Example 23b]
≤ 1 nM | – | CC(=O)N1CCC(C[C@@H](Cc2ccc(-c3cc(Cl)ccc3F)cc2)NC(=O)c2cnn[nH]2)(C(=O)O)C1 (single isomer, unassigned) [Example 22a]
≤ 1 nM | – | CCC(C#N)(C[C@@H](Cc1ccc(-c2cc(Cl)ccc2F)cc1)NC(=O)c1cnn[nH]1)C(=O)O (single isomer, unassigned) [Example 23a]
≤ 1 nM | – | C=CCC(CO)(C[C@@H](Cc1ccc(-c2cc(Cl)ccc2F)cc1)NC(=O)c1cnn[nH]1)C(=O)O (single isomer, unassigned) [Example 19a]
– | ≧9.0 | O=C(N[C@H](Cc1ccc(-c2cc(Cl)ccc2F)cc1)CC1(C(=O)O)CCOC1)c1cnn[nH]1 (single isomer, unassigned) [Example 20b]
≤ 1 nM | – | O=C(N[C@H](Cc1ccc(-c2cc(Cl)ccc2F)cc1)CC1(C(=O)O)CCNC1)c1cnn[nH]1 (single isomer, unassigned) [Example 21a]
– | ≧9.0 | CCC(CO)(C[C@@H](Cc1ccc(-c2cc(Cl)ccc2F)cc1)NC(=O)c1cnn[nH]1)C(=O)O (single isomer, unassigned) [Example 14b]
